Measurements published in patent publication US20260364184A1, “COMPOUND BASED ON OXOISOINDOLINYL-SUBSTITUTED TETRAHYDROPYRIMIDINE-DIONE AND USE THEREOF” (GLUETACS THERAPEUTICS (SHANGHAI) CO., LTD., priority 2023, published 2026).
Blank lines part the entries; values can stand above or below the molecule they belong to.

Key:
Tau = biological target: T1, Tau (Homo sapiens, UniProt P10636); experiment: Western blot degradation of Tau; assay type: cell-based; settings: H4 Cell; 24 hours
T1 construct: endogenous in cells
T1 sequence (P10636 whole entry): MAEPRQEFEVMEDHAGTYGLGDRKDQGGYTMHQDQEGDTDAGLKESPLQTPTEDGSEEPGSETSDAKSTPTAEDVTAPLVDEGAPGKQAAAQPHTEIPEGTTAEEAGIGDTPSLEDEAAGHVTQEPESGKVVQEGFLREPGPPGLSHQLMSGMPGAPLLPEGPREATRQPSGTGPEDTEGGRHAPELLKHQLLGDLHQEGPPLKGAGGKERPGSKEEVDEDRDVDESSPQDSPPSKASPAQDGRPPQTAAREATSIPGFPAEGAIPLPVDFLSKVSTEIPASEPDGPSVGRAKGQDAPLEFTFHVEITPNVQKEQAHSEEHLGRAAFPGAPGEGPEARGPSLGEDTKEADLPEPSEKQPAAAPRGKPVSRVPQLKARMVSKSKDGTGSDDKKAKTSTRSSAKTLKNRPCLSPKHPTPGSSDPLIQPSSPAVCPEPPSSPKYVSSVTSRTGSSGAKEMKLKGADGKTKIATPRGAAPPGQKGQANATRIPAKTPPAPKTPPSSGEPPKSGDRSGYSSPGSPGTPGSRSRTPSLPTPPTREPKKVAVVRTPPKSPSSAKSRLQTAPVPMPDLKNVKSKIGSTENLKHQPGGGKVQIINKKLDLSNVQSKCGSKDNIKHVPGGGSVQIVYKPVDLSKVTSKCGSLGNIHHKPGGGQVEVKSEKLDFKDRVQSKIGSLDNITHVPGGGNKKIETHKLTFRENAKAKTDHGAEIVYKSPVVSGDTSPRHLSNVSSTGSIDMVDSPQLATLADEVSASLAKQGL
Description: (§1) Conventional Western blot assay was performed to evaluate the effects of the compounds of the present disclosure on the expression of target proteins in cells.
(§2) (1) Cell Seeding and Protein Harvesting: The selected cells were processed according to the cell seeding procedure and protein harvesting procedure in Table II-2.
(§3) (2) To the collected supernatant, 5×SDS sample loading buffer was added, followed by denaturation at 95 °C for 5 minutes. The denatured samples were then separated by SDS-PAGE electrophoresis on a polyacrylamide gel. Proteins were transferred to a nitrocellulose membrane (0.45 μm NC membrane), blocked with blocking buffer at room temperature for 1 hour, and subjected to antibody incubation and development procedures according to the antibody manufacturer's instructions (Cell Signaling Technology).
(§4) Half-Maximal Degradation Concentration value (the drug concentration required for degrading proteins by 50%, abbreviated as DC50) reads method: comparing the grayscale values of Western blot bands from drug-treated samples with those from blank DMSO-treated controls, and identifying the drug concentration range at which the grayscale value is half that of the DMSO-treated control bands.
(§5) DC50 values can be calculated using ImageJ software to measure grayscale values of Western blot bands from drug-treated samples. The concentration-response curve is fitted to estimate the drug concentration corresponding to half the grayscale value.
(§6) Target protein remaining (%) refers to the percentage of target protein remaining in cells after treatment with protein degrader compounds.
(§7) Calculation method for target protein remaining (%): Use ImageJ software to measure grayscale values of Western blot bands from drug (protein degrader)-treated samples. The grayscale value of drug-treated bands is divided by that of internal control protein bands, and the resulting quotient is normalized to obtain the relative percentage of remaining target protein after protein degrader treatment.
(§8) Target protein degradation rate (%)=1−target protein remaining (%).

[1] = system: Human large cell immunoblastic lymphoma cell line SR; experiment: Inhibition of SR cell proliferation (CellTiter luminescent viability); assay type: cell-based; settings: Table IE1, CDK4/6 inhibitor-based, 96 hours, read-out: Inhibitory activity (IC50, nM) on tumor cell proliferation, SR
Summary of the method: (§9)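 IC50 is fitted from luminescent viability (CellTiter-Meiluncell) curves. Nine-point, 5-fold dilution series (top stock 2000 μM) are added at 0.5 μL per 100 μL medium to cells plated the day before, with growth at 37 °C and 5% CO2.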

[2] = system: Human Acute T Lymphoblastic Leukemia Cells (Molt-4); experiment: Inhibition of Molt-4 cell proliferation (CellTiter luminescent viability); assay type: cell-based; settings: Table IE1, CDK4/6 inhibitor-based; Molt-4, 96 hours; read-out: Inhibitory activity (IC50, nM) on tumor cell proliferation, Molt-4
[3] = system: Human myeloid monocytic leukemia cell line (MV-4-11); experiment: Inhibition of MV-4-11 cell proliferation (CellTiter luminescent viability); assay type: cell-based; settings: Table IE1, CDK4/6 inhibitor-based; MV-4-11, 96 hours; read-out: Inhibitory activity (IC50, nM) on tumor cell proliferation, MV-4-11
Summary of the method: as §9

[4] = system: Human acute lymphocytic leukemia T lymphocytes cell line (CCRF-CEM); experiment: Inhibition of CCRF-CEM cell proliferation (CellTiter luminescent viability); assay type: cell-based; settings: Table IE1, CDK4/6 inhibitor-based, 96 hours, read-out: Inhibitory activity (IC50, nM) on tumor cell proliferation, CCRF-CEM
[5] = system: Human breast cancer cell line MCF-7; experiment: Inhibition of MCF-7 cell proliferation (CellTiter luminescent viability); settings: Table IE1, CDK4/6 inhibitor-based; MCF-7, 96 hours; read-out: Inhibitory activity (IC50, nM) on tumor cell proliferation, MCF-7
Description: The tumor cells used herein were cultured in a cell culture medium listed in table 3 at 37 °C in an incubator with 5% CO2. Prior to experimentation, all cell lines used were correctly identified by STR profiling, and tested negative for mycoplasma contamination using a mycoplasma detection kit through routine screenings.
The IC50 values of the compounds of the present disclosure (including the compounds in Table 1, Table 2, and Examples 1-468) were determined using the CellTiter-Meiluncell Luminescent Cell Viability Assay Kit from Dalian Meilun Biotech Co., Ltd. The detailed procedure is as follows: Tumor cells were seeded in 96-well cell culture plates at the densities specified in Table 4. On the following day, the test compounds of the present disclosure were subjected to serial dilution. The dilution can be performed according to one of the following two methods: • (1) The first dilution method: The test compounds of the present disclosure (including the compounds in Table 1, Table 2, and Examples 1-468) were subjected to 5-fold serial dilutions starting from a highest concentration of 2000 μM, resulting in a total of 9 concentrations from high to low (2000, 400, 80, 16, 3.2, 0.64, 0.128, 0.0256, 0.00512 μM). Subsequently, 0.5 μL of the test compound dilution was transferred into the 96-well plate containing the cells, with each well containing 100 μL of cell culture medium. […] Into the 96-well plate, the diluted test compounds and corresponding detection reagents were added, resulting in final test compound concentrations of 500 nM and 10 nM, respectively. The experimental procedure is described below using the diluted 2 μM test compound as an example.
0.5 μL of the aforementioned diluted compound of the present disclosure (including the compounds in Table 1, Table 2, and Examples 1-468) was added to the seeded cells in 100 μL of medium, yielding a final test compound concentration of 10 nM. After the cells were treated with the compounds of the present disclosure for a specified period, the cell viability assay reagent was added to the culture medium according to the kit's instructions to determine cell viability. […] All controls were treated using the same procedure as the compounds of the present disclosure. The growth inhibition curves for the compounds of the present disclosure were plotted using Prism GraphPad software, and the IC50 values were calculated therefrom.

CDK4 = biological target: T2, CDK4 (Homo sapiens, UniProt P11802+Q96SW2); experiment: Western blot degradation of CDK4; assay type: cell-based; settings: MDA-MB-231 Cell; 24 hours
T2 construct: expression of target proteins in cells; endogenous in cells
T2 sequence (P11802 whole entry): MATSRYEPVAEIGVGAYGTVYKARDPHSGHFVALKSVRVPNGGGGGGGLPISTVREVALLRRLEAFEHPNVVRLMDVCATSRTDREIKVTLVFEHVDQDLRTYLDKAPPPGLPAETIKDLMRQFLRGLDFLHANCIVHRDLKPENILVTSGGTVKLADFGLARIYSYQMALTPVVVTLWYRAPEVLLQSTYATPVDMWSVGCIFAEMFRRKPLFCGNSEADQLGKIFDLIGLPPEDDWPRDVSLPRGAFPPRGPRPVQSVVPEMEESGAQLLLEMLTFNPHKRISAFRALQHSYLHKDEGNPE
T2 sequence (Q96SW2 whole entry): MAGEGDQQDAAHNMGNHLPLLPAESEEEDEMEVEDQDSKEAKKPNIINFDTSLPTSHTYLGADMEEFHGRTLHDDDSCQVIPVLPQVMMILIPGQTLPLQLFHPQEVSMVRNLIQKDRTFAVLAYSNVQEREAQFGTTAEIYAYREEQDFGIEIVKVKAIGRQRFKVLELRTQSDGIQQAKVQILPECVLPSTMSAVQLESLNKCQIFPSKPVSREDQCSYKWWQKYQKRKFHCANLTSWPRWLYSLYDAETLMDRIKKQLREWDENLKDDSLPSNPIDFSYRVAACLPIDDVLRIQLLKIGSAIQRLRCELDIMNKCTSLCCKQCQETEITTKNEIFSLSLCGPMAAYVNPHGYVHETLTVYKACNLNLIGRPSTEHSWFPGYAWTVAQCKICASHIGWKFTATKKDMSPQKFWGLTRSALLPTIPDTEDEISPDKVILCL
T2 sequence (Q16531 whole entry partner): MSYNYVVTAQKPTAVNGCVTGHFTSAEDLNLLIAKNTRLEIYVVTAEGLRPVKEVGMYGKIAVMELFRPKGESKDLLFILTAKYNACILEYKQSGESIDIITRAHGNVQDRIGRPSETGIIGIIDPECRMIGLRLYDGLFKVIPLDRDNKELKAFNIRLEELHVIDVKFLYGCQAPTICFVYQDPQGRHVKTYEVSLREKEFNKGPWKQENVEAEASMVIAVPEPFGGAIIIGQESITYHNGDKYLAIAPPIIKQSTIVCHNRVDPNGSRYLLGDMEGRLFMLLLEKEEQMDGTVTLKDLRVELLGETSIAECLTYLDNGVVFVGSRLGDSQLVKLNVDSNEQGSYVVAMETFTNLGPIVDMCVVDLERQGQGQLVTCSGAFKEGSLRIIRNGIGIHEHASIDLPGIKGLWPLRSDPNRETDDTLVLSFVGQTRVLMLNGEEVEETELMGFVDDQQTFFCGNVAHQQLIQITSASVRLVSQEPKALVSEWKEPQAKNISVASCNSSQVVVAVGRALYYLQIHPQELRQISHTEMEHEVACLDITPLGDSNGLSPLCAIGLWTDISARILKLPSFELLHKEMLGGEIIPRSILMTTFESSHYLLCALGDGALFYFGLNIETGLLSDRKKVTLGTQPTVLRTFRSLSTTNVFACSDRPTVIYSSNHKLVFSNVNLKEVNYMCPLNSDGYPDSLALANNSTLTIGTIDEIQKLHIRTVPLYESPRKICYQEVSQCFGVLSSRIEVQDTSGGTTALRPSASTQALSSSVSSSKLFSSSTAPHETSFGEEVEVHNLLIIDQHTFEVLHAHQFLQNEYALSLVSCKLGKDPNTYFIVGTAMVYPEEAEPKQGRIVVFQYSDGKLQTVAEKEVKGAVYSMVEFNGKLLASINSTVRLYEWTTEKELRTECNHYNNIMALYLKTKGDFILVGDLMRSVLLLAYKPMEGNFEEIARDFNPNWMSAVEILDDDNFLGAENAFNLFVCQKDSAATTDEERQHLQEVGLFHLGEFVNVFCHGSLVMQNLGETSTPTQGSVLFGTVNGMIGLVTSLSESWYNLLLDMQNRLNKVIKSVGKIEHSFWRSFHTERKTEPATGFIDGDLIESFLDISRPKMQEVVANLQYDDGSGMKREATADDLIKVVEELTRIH
Summary of the method: (§10)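 Compound-treated cells harvested; lysates denatured 5 min at 95 °C, run on SDS-PAGE, blotted to NC membrane, blocked 1 h RT, probed with antibodies. Densitometry vs DMSO → DC50; target normalised to internal control → % remaining, degradation = 1 − remaining.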

CDK6 = biological target: T3, CDK6 (Homo sapiens, UniProt Q00534+Q96SW2); experiment: Western blot degradation of CDK6; assay type: cell-based; settings: MDA-MB-231 Cell; 24 hours
T3 construct: expression of target proteins in cells; endogenous in cells
T3 sequence (Q00534 whole entry): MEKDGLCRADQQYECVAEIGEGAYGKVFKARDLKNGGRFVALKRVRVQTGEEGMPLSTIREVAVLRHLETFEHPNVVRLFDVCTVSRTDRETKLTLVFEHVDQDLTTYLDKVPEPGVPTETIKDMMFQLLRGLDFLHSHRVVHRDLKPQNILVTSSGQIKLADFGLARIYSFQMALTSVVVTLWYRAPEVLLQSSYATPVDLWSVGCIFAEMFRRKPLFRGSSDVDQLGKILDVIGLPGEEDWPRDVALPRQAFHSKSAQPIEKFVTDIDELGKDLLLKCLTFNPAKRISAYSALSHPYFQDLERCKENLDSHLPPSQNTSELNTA
T3 sequence (Q96SW2 whole entry): as the sequence (Q96SW2 whole entry) above
T3 sequence (Q16531 whole entry partner): as the sequence (Q16531 whole entry partner) above
Summary of the method: as §10

BTK = biological target: T4, BTK (Homo sapiens, UniProt Q06187); experiment: Western blot degradation of BTK; assay type: cell-based; settings: Table IIA4, BTK inhibitor-based
T4 construct: expression of target proteins in cells; endogenous in cells
T4 sequence (Q06187 whole entry): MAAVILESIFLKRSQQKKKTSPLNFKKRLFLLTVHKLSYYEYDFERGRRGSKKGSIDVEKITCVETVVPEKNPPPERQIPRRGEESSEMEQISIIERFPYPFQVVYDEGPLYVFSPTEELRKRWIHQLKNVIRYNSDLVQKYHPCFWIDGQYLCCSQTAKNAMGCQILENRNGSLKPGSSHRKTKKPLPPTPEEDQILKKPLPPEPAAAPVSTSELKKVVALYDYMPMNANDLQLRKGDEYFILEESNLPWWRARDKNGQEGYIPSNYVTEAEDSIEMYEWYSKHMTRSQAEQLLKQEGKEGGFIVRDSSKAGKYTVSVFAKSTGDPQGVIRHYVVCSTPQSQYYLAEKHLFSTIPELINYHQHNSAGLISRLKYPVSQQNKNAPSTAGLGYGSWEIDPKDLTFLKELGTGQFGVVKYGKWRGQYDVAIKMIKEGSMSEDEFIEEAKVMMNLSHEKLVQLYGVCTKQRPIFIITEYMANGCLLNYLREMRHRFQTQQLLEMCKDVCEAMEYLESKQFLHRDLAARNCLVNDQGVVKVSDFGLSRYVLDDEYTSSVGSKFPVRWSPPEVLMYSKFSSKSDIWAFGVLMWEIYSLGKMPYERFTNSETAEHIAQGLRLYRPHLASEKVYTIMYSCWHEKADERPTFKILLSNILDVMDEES
Description: as §1, §2, §3, §4, §5, §6, §7, §8

[6] = biological target: T5, human Cereblon WT GST-tagged protein (CRBN) (Homo sapiens, UniProt Q96SW2); experiment: CRBN binding by HTRF (Cereblon binding kit)
T5 construct: purchased CISBIO 64BDCRBNPEH
T5 sequence (Q96SW2 whole entry): as the sequence (Q96SW2 whole entry) above
Summary of the method: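 GST-tagged human Cereblon WT was incubated 3 h at room temperature with compound, thalidomide-Re tracer and Eu anti-GST antibody. Final compound concentrations were 10 to 0.00064 µM (7 points) or 2 and 0.5 µM. Inhibition rate was calculated from HTRF 665/620 nm ratios versus solvent and blank controls.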

Degradation of substrate protein Tau (substrate protein remaining %) (Tau): A (0%≤substrate protein remaining %≤80%)
Compound: O=C1CCN(N2C(=O)c3ccc(N4CCN(CC5CCN(c6ccn7c(n6)nc6ccccc67)CC5)CC4)c(F)c3C2=O)C(=O)N1 [GT-08824, 5-(4-((1-(benzo[4,5]imidazo[1,2-a]pyrimidin-2-yl)piperidin-4-yl)methyl)piperazin-1-yl)-2-(2,4-dioxotetrahydropyrimidin-1(2H)-yl)-4-fluoroisoindoline-1,3-dione]

IC50 [1]: 10 to 50 nM | IC50 [2]: 100 to 300 nM | IC50 [3]: 10 to 50 nM | IC50 [4]: 100 to 300 nM | IC50 [5]: 50 to 100 nM | Degradation of substrate protein CDK6 (substrate protein remaining %) (CDK6): A (0%≤substrate protein remaining %≤80%)
Compound: Cc1nc2c(F)cc(-c3nc(Nc4ccc(N5CCC(N6CCN(Cc7ccc8c(c7)CN(N7CCC(=O)NC7=O)C8=O)CC6)CC5)cn4)ncc3F)cc2n1C(C)C [GT-06736, 1-(5-((4-(1-(6-((5-fluoro-4-(4-fluoro-1-isopropyl-2-methyl-1H-benzo[d]imidazol-6-yl)pyrimidin-2-yl)amino)pyridin-3-yl)piperidin-4-yl)piperazin-1-yl)methyl)-1-oxoisoindolin-2-yl)dihydropyrimidine-2,4 (1H,3H)-dione]
Degradation of substrate protein CDK4 (substrate protein remaining %) (CDK4): B (80%<substrate protein remaining %≤100%)

Degradation of substrate protein BTK (substrate protein remaining %) (BTK): A (0%≤substrate protein remaining %≤80%)
Compound: Nc1ncnc2c1c(-c1ccc(Oc3ccccc3)cc1)nn2C1CCN(CC2CCN(c3cccc4c3C(=O)N(N3CCC(=O)NC3=O)C4=O)CC2)CC1 [GT-05077, 4-(4-((4-(4-amino-3-(4-phenoxyphenyl)-1H-pyrazolo[3,4-d]pyrimidin-1-yl)piperidin-1-yl)methyl)piperidin-1-yl)-2-(2,4-dioxotetrahydropyrimidin-1(2H)-yl)isoindoline-1,3-dione]

Degradation of substrate protein BTK (substrate protein remaining %) (BTK): A (0%≤substrate protein remaining %≤80%) | inhibition at 0.5 µM ([6]; 0.5 μM, read-out: Inhibition Rate at 0.5 μM (%)): 10 to 20% | inhibition at 2 µM ([6]; 2 μM, read-out: Inhibition Rate at 2 μM (%)): 53 to 60%
Compound: Nc1ncnc2c1c(-c1ccc(Oc3ccccc3)cc1)nn2C1CCN(CC2CCN(C3CCN(c4ccc5c(c4)C(=O)N(N4CCC(=O)NC4=O)C5=O)CC3)CC2)CC1 [GT-05096, 5-(4-((4-(4-amino-3-(4-phenoxyphenyl)-1H-pyrazolo[3,4-d]pyrimidin-1-yl)piperidin-1-yl)methyl)-[1,4′-bipiperidin]-1′-yl)-2-(2,4-dioxotetrahydropyrimidin-1(2H)-yl)isoindoline-1,3-dione]

Degradation of substrate protein Tau (substrate protein remaining %) (Tau): A (0%≤substrate protein remaining %≤80%)
Compound: Cn1ncc(Cl)c1-c1cc(C(=O)N[C@H](CNCC2CCN(c3cccc4c3C(=O)N(N3CCC(=O)NC3=O)C4=O)CC2)Cc2ccc(F)c(F)c2)oc1Cl [GT-08589, (S)-5-chloro-4-(4-chloro-1-methyl-1H-pyrazol-5-yl)-N-(1-(3,4-difluorophenyl)-3-(((1-(2-(2,4-dioxotetrahydropyrimidin-1(2H)-yl)-1,3-dioxoisoindolin-4-yl)piperidin-4-yl)methyl)amino)propan-2-yl) furan-2-carboxamide]

Degradation of substrate protein Tau (substrate protein remaining %) (Tau): A (0%≤substrate protein remaining %≤80%)
Compound: O=C1CCN(N2C(=O)c3ccc(CN4CCN(C5CCN(c6ccn7c(n6)nc6ccccc67)CC5)CC4)cc3C2=O)C(=O)N1 [GT-08568, 5-((4-(1-(benzo[4,5]imidazo[1,2-a]pyrimidin-2-yl)piperidin-4-yl)piperazin-1-yl)methyl)-2-(2,4-dioxotetrahydropyrimidin-1(2H)-yl)isoindoline-1,3-dione]

Degradation of substrate protein Tau (substrate protein remaining %) (Tau): A (0%≤substrate protein remaining %≤80%)
Compound: Cn1ncc(Cl)c1-c1cc(C(=O)N[C@@H](Cc2ccc(F)c(F)c2)CN2CCN(CC3CCN(c4cccc5c4C(=O)N(N4CCC(=O)NC4=O)C5=O)CC3)CC2)oc1Cl [GT-08590, (S)-5-chloro-4-(4-chloro-1-methyl-1H-pyrazol-5-yl)-N-(1-(3,4-difluorophenyl)-3-(4-((1-(2-(2,4-dioxotetrahydropyrimidin-1(2H)-yl)-1,3-dioxoisoindolin-4-yl)piperidin-4-yl)methyl)piperazin-1-yl)propan-2-yl) furan-2-carboxamide]

IC50 [1]: 10 to 50 nM | IC50 [2]: 100 to 300 nM | IC50 [3]: 10 to 50 nM | IC50 [4]: 100 to 300 nM | IC50 [5]: 100 to 300 nM | Degradation of substrate protein CDK4 (substrate protein remaining %) (CDK4): A (0%≤substrate protein remaining %≤80%) | Degradation of substrate protein CDK6 (substrate protein remaining %) (CDK6): A (0%≤substrate protein remaining %≤80%)
Compound: Cc1nc2c(F)cc(-c3nc(Nc4ccc(N5CCC(N(C)Cc6ccc7c(c6)CN(N6CCC(=O)NC6=O)C7=O)CC5)cn4)ncc3F)cc2n1C(C)C [GT-06837, 1-(5-(((1-(6-((5-fluoro-4-(4-fluoro-1-isopropyl-2-methyl-1H-benzo[d]imidazol-6-yl)pyrimidin-2-yl)amino)pyridin-3-yl)piperidin-4-yl)(methyl)amino)methyl)-1-oxoisoindolin-2-yl)dihydropyrimidine-2,4 (1H,3H)-dione]

Degradation of substrate protein Tau (substrate protein remaining %) (Tau): A (0%≤substrate protein remaining %≤80%)
Compound: Cn1ncc(Cl)c1-c1cc(C(=O)N[C@@H](Cc2cccc(F)c2)CN2CCN(CC3CCN(c4cccc5c4C(=O)N(N4CCC(=O)NC4=O)C5=O)CC3)CC2)sc1Cl [GT-08591, (S)-5-chloro-4-(4-chloro-1-methyl-1H-pyrazol-5-yl)-N-(1-(4-((1-(2-(2,4-dioxotetrahydropyrimidin-1(2H)-yl)-1,3-dioxoisoindolin-4-yl)piperidin-4-yl)methyl)piperazin-1-yl)-3-(3-fluorophenyl)propan-2-yl)thiophene-2-carboxamide]
